# Laboratory results published in PubChem BioAssay (NCI).
# Several values for one entry are separate records, joined by “and”; a condition that tells them apart may be missing. Identical values can stand only once.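 Following 48 hours of exposure in 96-well plates, responses at five concentrations were used to interpolate endpoints linearly. At the GI50, growth is halved. TGI denotes the concentration required for complete inhibition of growth.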
# How the values were obtained:
# Test in all cases: DTP human tumour cell line panel, 48 h
# OVCAR-8 ovarian = system: OVCAR-8 ovarian
# NCI-H23 lung = system: NCI-H23 lung
# HOP-92 NSCLC = system: HOP-92 NSCLC
# HS 578T breast = system: HS 578T breast
# UO-31 renal = system: UO-31 renal
# OVCAR-3 ovarian = system: OVCAR-3 ovarian
# SF-295 CNS = system: SF-295 CNS
SMILES,GI50 (OVCAR-8 ovarian),TGI (OVCAR-8 ovarian) [µM],GI50 (NCI-H23 lung),TGI (NCI-H23 lung) [µM],GI50 (HOP-92 NSCLC),TGI (HOP-92 NSCLC) [µM],GI50 (HS 578T breast) [µM],TGI (HS 578T breast) [µM],GI50 (UO-31 renal) [µM],TGI (UO-31 renal) [µM],GI50 (OVCAR-3 ovarian) [µM],TGI (OVCAR-3 ovarian) [µM],GI50 (SF-295 CNS),TGI (SF-295 CNS)
CC1=C2[C@@H](CC1)[C@]1(C)O[C@@](C(C)C)(C[C@H]1OC(=O)CO)[C@H]2OC(=O)C1CC1c1ccccc1 (stereo not given in full),12.9 µM,35.6,14.2 µM,32.4,11.8 µM,24.6,0.0681,2.38,9.49,25.1,13,26.4,12 µM,24.7 µM
COc1cc(Nc2ncc(-c3ccccc3)o2)cc(OC)c1,> 25 µM,> 25,> 25 µM,> 25,> 25 µM,> 25,1.39,> 9.65,> 25,> 25,> 25,> 25,> 25 µM,> 25 µM
Cc1csc2[n+]1-c1ccccc1N(C(=O)Nc1ccccc1)C(C)C2 (stereo not given),> 100 µM,> 100,35.8 µM,> 100,41.7 µM,> 100,> 100,> 100,> 100,> 100,> 100,> 100,> 100 µM,> 100 µM
COc1ccc2c(c1)nc(C(=O)c1ccco1)c(C(F)(F)F)[n+]2[O-],> 100 µM,> 100,> 100 µM,> 100,–,–,> 100,> 100,> 100,> 100,> 100,> 100,> 100 µM,> 100 µM
COCc1c(-c2cc3cc(C)cc(OC)c3s2)c2c(N)ncnn2c1CN1CCNC(=O)C1,4.85 µM,> 100,4.45 µM,70.7,1.29 µM,5.92,1.84,13.7,1.76,11.9,8.08,> 100,3.05 µM,21.5 µM
COc1ccc(C/C(=C(\C)c2ccc(OCCN3CCCC3)cc2)c2ccc(OCCN3CCCC3)cc2)cc1,2.05 µM,4.38,3.67 µM,14.1,1.96 µM,8.25,2.17,4.83,1.56,2.94,2,3.87,1.76 µM,3.47 µM
CCCCCCCCCCCCCCCCCCn1cc[n+](C)c1,–,–,–,–,0.35 µM,2.62,0.335,1.8,1.03,2.41,0.366,1.27,–,–
COc1ccc(Cc2coc3ccccc3c2=O)cc1OC,–,> 100,–,> 100,–,> 100,–,> 100,–,> 100,–,> 100,–,> 100 µM
COc1ccc2c(c1)[nH]c(=O)c1c3cccc(F)c3cn21,0.129 µM,> 73.3,0.21 µM,> 52.3,–,–,0.0299,0.0904,0.0596,> 70.6,0.0295,0.0774,0.0408 µM,–
Nc1ccc(C2=CC(c3ccc(Cl)cc3)N3C=CSC3=N2)cc1 (stereo not given),4.16 µM,48.1,17.8 µM,46.8,17.7 µM,72.4,23.5,> 100,2.33,11,2.79,7.43,13.1 µM,40.4 µM
CC1=C(SCCC(=O)OC(C[Se]C2=C(C)C(=O)c3ccccc3C2=O)C(=O)NCCCCCC(=O)OCc2ccccc2)C(=O)c2ccccc2C1=O (stereo not given),4.16 µM,15,2.76 µM,7.84,2.7 µM,7.89,7.6,> 100,2.51,15.3,5.01,18.2,2.49 µM,8.7 µM
Cc1cccc2nc3ccccc3c(Nc3ccc(NS(C)(=O)=O)cc3)c12,6.23 µM,30.9,–,–,2.17 µM,11.1,8.88,31.7,2.61,12.4,14.1,37,5.2 µM,47.5 µM
COc1ccc2c(c1OC)CO[C@@H]2[C@H]1c2c(cc3c(c2OC)OCO3)CCN1S(=O)(=O)c1cn(C)cn1,3.24 µM,> 100,3.43 µM,> 100,0.783 µM,87.4,–,–,5.2,> 100,1.59,4.83,1.18 µM,> 100 µM
NCCCC[C@@H]1NC(=O)[C@H](CC(=O)O)NC(=O)CNC(=O)[C@H](CCCN=C(N)N)NC(=O)[C@@H](N)CSSC[C@@H](C(=O)O)NC(=O)[C@H](CC(=O)O)NC(=O)[C@@H]2CCCN2C(=O)CNC1=O,> 100 µM,> 100,> 100 µM,> 100,> 100 µM,> 100,> 100,> 100,–,–,> 100,> 100,> 100 µM,> 100 µM
CC(C)(C)c1ccc(Oc2ccc(N)cn2)cc1,75.6 µM,> 100,53 µM,> 100,–,–,43.9,> 100,1.75,> 100,26,> 100,45.8 µM,> 100 µM
C=C/C=C/[C@@H](O)CC(=C)C[C@H]1OC2[C@H](C)[C@@H](OC(=O)C[C@H]3C[C@H](OC(C)=O)C[C@@]4(C[C@@](C)(O)C[C@H](CC(=C)[C@@H](C)[C@H](OC(C)=O)[C@H](C)C(=O)C[C@@H]5C[C@H](OC)CC6(C[C@@H](O)C[C@H](/C=C\CCC[C@H]7O[C@](O)(C=C[C@H]7C)[C@H]2O)O6)O5)O4)O3)[C@@H]1O,0.00053 µM and 0.0025 µM,–,0.000475 µM and < 0.0025 µM,< 0.0025,0.0227 µM and 0.0025 µM,15.1,0.00177,0.0082,–,> 10.9,< 0.0025,< 0.0025,0.000492 µM and < 0.0025 µM,0.0029 µM and < 0.0025 µM
CCN(CC)CCCNc1cc(OC)cc2nc3cc(Cl)ccc3nc12,0.838 µM,10.2,1.79 µM,4.32,1.69 µM,9.5,2.53,9.48,1.19,4.08,2.06,5.9,2.33 µM,6.48 µM
